Results: patent US20140323354A1, “Chemically Modified Ligase Cofactors, Donors and Acceptors” (priority 2010, published 2014)

Biological target: T1, T4 DNA ligase (Enterobacteria phage T4, UniProt P00970)
T1 construct: purchased New England Biolabs
Test: Ligation yield with modified ATP cofactors on matched and mismatched templates, PAGE analysis
Format: biochemical, bacteriophage T4
Conditions: for discrimination of modified cofactor between matched and mismatched templates: matched T-A versus mismatched C-A, G-A, A-A, panel of ten modified cofactors at 1 mM
Description: Each 20 μL reaction was performed in buffer containing 50 mM Tris-HCl (pH 7.5), 10 mM MgCl2, 10 mM dithiothreitol, 25 μg/ml bovine serum albumin. 1 mM ATP was added to the buffer separately. The donor (LP3′T w/PBS), acceptor (Com3F w/PBS), and template (Alg) were at 0.1 μM equimolar amounts. The acceptor, donor, and template were denatured at 95° C. for 3 minutes and annealed at 4° C. for 3 minutes. Ligation was initiated by adding 400 units of T4 ligase (New England Biolabs) to each reaction. Ligation proceeded at 16° C. for 20 minutes. Ligation was terminated by heating the reaction to 65° C. for 10 minutes and adding an equal volume of 2×TBE-Urea buffer (Invitrogen). Samples were run on 6% TBE-Urea Novex gels (Invitrogen). The gels were stained with SYBR Gold nucleic acid stain (Invitrogen) according to manufacturer's protocol.
ATP analogs were compared to the corresponding natural ATP cofactor for their ability to join matched and mismatched templates (FIG. 4). ATP analogs were evaluated for relative ligation yield in the presence of matched template (LP3′T Acceptor w/PBS and Alg template; T-A matched base pair at the 3′-end of the acceptor strand) to the relative yield when a mismatched template was used (LP3′C Acceptor w/PBS and Alg template; C-A mismatched base pair on 3′-end of the acceptor strand). Reactions were performed as described for Example 1, with a cofactor of interest included in the reaction at 1 mM concentration. Natural ATP substrate was compared to the following modified cofactors: 7-deaza-ATP (7-deaza-adenosine-5′-triphosphate), N1-methyl-ATP (N1-methyl-adenosine-5′-triphosphate), 2-amino-ATP (2-amino-adenosine-5′-triphosphate), 2′-amino-2′-deoxy-ATP (2′-amino-2′-deoxyadenosine-5′-triphosphate), 3′-amino-2′,3′-dideoxy-ATP (3′-amino-2′,3′-dideoxy-adenosine-5′-triphosphate) (FIG. 4). All modified cofactors supported ligation with similar efficiency to natural ATP when a matched template was employed.
One method of determining the ligation yield of a ligation component of interest (e.g., modified ligase cofactors, modified donors or modified acceptors) is by assigning a specificity number. Specificity numbers can be determined for example, by dividing the ligation yield of a matched case by the ligation yield of a mismatched case where a single base pair differs relative to the matched case. […] The yields are then normalized to the template readings in the same reaction, with subsequent normalization to the ligation yield for a reaction including the natural (ATP) cofactor, where ATP has a normalized yield of 1.0. For example, in the case of 2′-deoxy-ATP (2′-deoxy-adenosine-5′-triphosphate; FIG. 4), the ligation yield in the matched case (LP3′T Acceptor w/PBS and Alg template; T-A matched base pair on 3′ end of the acceptor strand) was 1.34. In the mismatched case (LP3′C Acceptor w/PBS and Alg template; C-A mismatched base pair on 3′ end of the acceptor strand) the ligation yield was 0.18. Accordingly, the specificity number assigned to 2′-deoxy-ATP in a C-A mismatch case was 1.34÷0.18 or 7.44. A value greater than one is indicative of improved ligation specificity. A value less than one is indicative of reduced ligation specificity.
ATP analogs were compared to the natural ATP cofactor for their ability to join matched and mismatched templates for relative ligation yield in the presence of matched template (LP3′T Acceptor w/PBS and Alg template; T-A matched base pair on 3′-end of the acceptor strand) relative to the yield of templates which contained a mismatched base pair on 3′-end of the acceptor: 1) LP3′C Acceptor w/PBS and Alg template; C-A mismatch, 2) LP3′G Acceptor w/PBS and Alg template; G-A mismatch, and 3) LP3′A Acceptor w/PBS and Alg template; A-A mismatch (FIG. 5). Reactions were performed as described for Example 1, with a cofactor of interest included in the reaction at 1 mM concentration. […]

T1 sequence (P00970 whole entry): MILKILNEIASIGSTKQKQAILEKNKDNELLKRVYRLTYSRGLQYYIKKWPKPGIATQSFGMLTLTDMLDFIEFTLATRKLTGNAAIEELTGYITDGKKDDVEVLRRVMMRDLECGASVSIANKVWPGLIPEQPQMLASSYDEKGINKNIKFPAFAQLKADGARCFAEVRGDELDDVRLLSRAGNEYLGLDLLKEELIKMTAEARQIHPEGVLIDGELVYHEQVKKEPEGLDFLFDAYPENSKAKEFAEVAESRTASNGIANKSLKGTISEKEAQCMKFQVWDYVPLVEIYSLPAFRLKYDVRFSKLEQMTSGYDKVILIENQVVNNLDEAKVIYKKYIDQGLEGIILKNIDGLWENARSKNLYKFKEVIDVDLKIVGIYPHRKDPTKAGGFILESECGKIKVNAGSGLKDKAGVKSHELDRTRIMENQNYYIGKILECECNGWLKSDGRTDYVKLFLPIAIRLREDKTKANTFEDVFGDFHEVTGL

Nc1ncnc2c1ncn2[C@H]1C[C@H](O)[C@@H](COP(=O)(O)OP(=O)(O)OP(=O)(O)O)O1 [2′-deoxy-ATP, 2′-deoxy-adenosine-5′-triphosphate]
ligation yield in the mismatched case (LP3′C Acceptor w/PBS and Alg template, C-A mismatched base pair on 3′ end of acceptor, cofactor 1 mM, normalized to ATP = 1.0): 0.18 | ligation yield in the matched case (LP3′T Acceptor w/PBS and Alg template, T-A matched base pair on 3′ end of acceptor, cofactor 1 mM, normalized to ATP = 1.0): 1.34 | specificity number (matched (T-A) yield divided by mismatched (C-A) yield, greater than one = improved ligation specificity): 7.44 | discrimination of modified cofactor between matched and mismatched templates: lead modifications of interest

Nc1ncnc2c1ncn2[C@H]1C[C@H](N)[C@@H](COP(=O)(O)OP(=O)(O)OP(=O)(O)O)O1 [3′-amino-2′,3′-dideoxy-adenosine-5′-triphosphate]
discrimination of modified cofactor between matched and mismatched templates: lead modifications of interest

Nc1ncnc2c1ncn2[C@@H]1O[C@H](COP(O)(=S)OP(=O)(O)OP(=O)(O)O)[C@@H](O)[C@H]1O (stereo partly drawn) [5′-alpha-thio-adenosine-5′-triphosphate]
discrimination of modified cofactor between matched and mismatched templates: lead modifications of interest
